{"source": "patent US7560096B2", "about": "“Diagnostic procedures using direct injection of gaseous hyperpolarized 129Xe and associated systems and products” (Medi-Physics, Inc, priority 2000, dated 2009)", "key": {"[1]": {"assay": "Solubilities of gases in water, plasma, blood and tissues", "assay_type": "physicochemical", "text": "The feasibility of gaseous ^129Xe injection, particularly for arterial injections, may appear problematic. For example, it is known that arterial injections of air can lead to an undesirable air embolus. Although with intravenous (IV) injection the introduction of air is less of a concern, great care is typically taken to avoid such occurrences. The injection of CO2 is successful because of its high solubility in blood and the body's unique ability to remove it. The solubility of CO2 in blood and plasma can be difficult to measure because it is chemically metabolized.\nNonetheless, it is believed that the solubility that is of primary interest for the discussion herein and that the CO2 metabolism can be disregarded for the purposes of this comparison."}, "[2]": {"assay": "Bubble dissipation model (Krogh's coefficient) for gas bubbles in blood", "source_text": "To better understand bubble dissipation, one can model a string of contiguous bubbles as a cylinder to look at the diffusion of the gas out of the “cylinder” into the surrounding fluid to analyze how the bubble volume or radius decreases with time. Presser et al., in modeling a simulation as stated above, noted that the bubble radius “r” versus time can be represented by the equation: dr/dt=−KΔP/[rln(R/r)] where “K” is Krogh's coefficient (the product of solubility “S” and diffusion coefficient “D” of the gas in the surrounding fluid), “ΔP” is the pressure difference between gas in the bubbles and gas in the alveoli and “R” is the distance from the center of the bubbles to the inner edge of the adjacent alveoli.\nThat is, for comparative analysis, it is believed that one can evaluate the Krogh's coefficient (S×D) for Xe relative to air. The diffusion coefficient is substantially the same and can be cancelled out. For example, Xe in H2O is about 1.9×10^−5 cm^2/s while methane and water itself are at 2 and 2.3×10^−5 cm^2/s, respectively. Thus, solubility “S” becomes the important factor."}, "[3]": {"conditions": "cited from earlier work"}, "[4]": {"assay": "Relaxation of hyperpolarized gas on container surface materials (GE180 glass, high purity aluminum)", "assay_type": "physicochemical", "conditions": "for ψ (relaxivity of GE180 glass for the gas): from T1 and A/V=3/R", "text": "In order to calculate optimal capillary lengths, relaxivity values or estimates are needed. As a simple estimate, one can consider that an 180 cc spherical chamber of GE180 glass has a relaxation times of about 40 hr for ^3He and about 2 hr for ^129Xe. Knowing the relationship of “A/V=3/R” for a sphere, one can determine the relaxivity ψ of GE180 glass for both gases. The diffusion coefficients are noted for reference below.\nThe gas contacting surfaces of the injector head 300 can be formed of or coated with suitable materials to inhibit the depolarization of the gas as it travels therethrough. Examples of suitable materials include, but are not limited to, alumminosilicate glass, certain polymer materials or metallic materials or other materials as described herein. Surface coatings, such as a sputter coating of a non-depolarizing material of high purity silver or aluminum. The relaxivity of high purity aluminum for ^129Xe has been recently measured to be about 0.00225 cm/min. Metals other than aluminum which can be used include indium, gold, zinc, tin, copper, bismuth, silver, niobium, and oxides thereof. Preferably, “high purity” metals are employed (i.e., metals which are substantially free of paramagnetic or ferrous impurities) because even minute amounts of undesirable materials or contaminants may degrade the surface. Preferably, the metal is chosen such that it is well below 1 ppm in ferrous or paramagnetic impurity content."}, "[5]": {"conditions": "noted for reference; cited from earlier work"}, "[6]": {"assay": "Inhalation (breath-hold) delivery of hyperpolarized 129Xe: uptake and delivery to the brain", "assay_type": "in vivo, human", "text": "In addition, due to the high solubility of ^129Xe in blood and tissues, vascular and tissue imaging using inhaled hyperpolarized ^129Xe has also been proposed. Generally described, during inhalation delivery, a quantity of hyperpolarized ^129Xe is inhaled by a subject (a subject breathes in the ^129Xe gas) and the subject then holds his or her breath for a short period of time, i.e., a “breath-hold” delivery. This inhaled ^129Xe gas volume then exits the lung space and is generally taken up by the pulmonary vessels and associated blood or pulmonary vasculature at a rate of approximately 0.3% per second. For example, for an inhaled quantity of about 1 liter of hyperpolarized ^129Xe, an estimated uptake is about 3 cubic centimeters per second or a total quantity of about 40 cubic centimeters of ^129Xe over about a 15 second breath-hold period. Accordingly, it has been noted that such uptake can be used to generate images of pulnonary vasculature or even organ systems more distant from the lungs. See co-pending and co-assigned U.S. patent application Ser. No. 09/271,476 to Driehuys et al, entitled Methods for Imaging Pulmonary and Cardiac Vasculature and Evaluating Blood Flow Using Dissolved Polarized ^129Xe. Although primarily directed to inhalation delivery, this application also proposes injection of ^129Xe to replace conventional radioactive tracers in perfusion imaging methods. The contents of this application are hereby incorporated by reference as if recited in full herein.\nMany researchers are also interested in the possibility of using inhaled ^129Xe for imaging white matter perfusion in the brain, renal perfusion, and the like. While the inhaled delivery ^129Xe methods are suitable, and indeed, preferable, for many MRI applications for several reasons, such as the non-invasive characteristics attendant with such a delivery to a human subject, it may not be the most efficient method to deliver a sufficiently large dose to more distant (away from the pulmonary vasculature which is proximate to the lungs) target areas of interest. In addition, due to the dilution of the inhaled ^129Xe along the perfusion delivery path, relatively large quantities of the hyperpolarized ^129Xe are typically inhaled in order to deliver a small fraction of the gas to the more distal target sites or organ systems. For example, the brain typically receives only about 13% of the total blood flow in the human body. Thus, the estimated 40 cubic centimeter quantity of hyperpolarized ^129Xe taken up into the pulmonary vessels from the 1-liter inhalation dose can be reduced to only about 5 cubic centimeters by the time it reaches the brain.\nFurther, the hyperpolarized state of the gas is sensitive and can decay relatively quickly due to a number of relaxation mechanisms. Indeed, the relaxation time (generally represented by a decay constant “T1”) of the ^129Xe in the blood, absent other external depolarizing factors, is estimated at T1=4.0 seconds for venous blood and T1=6.4 s for arterial blood at a magnetic field strength of about 1.5 Tesla. See Wolber et al., Spin-lattice relaxation of laser-polarized xenon in human blood, 96 Proc. Natl. Acad. Sci. USA, pp. 3664-3669 (March 1999). (The more oxygenated arterial blood provides increased polarization life over the relatively de-oxygenated venous blood). […]"}, "[7]": {"assay": "Relaxation time (T1) of polarized 129Xe in blood and lung", "assay_type": "physicochemical, human", "text": "Further, the hyperpolarized state of the gas is sensitive and can decay relatively quickly due to a number of relaxation mechanisms. Indeed, the relaxation time (generally represented by a decay constant “T1”) of the ^129Xe in the blood, absent other external depolarizing factors, is estimated at T1=4.0 seconds for venous blood and T1=6.4 s for arterial blood at a magnetic field strength of about 1.5 Tesla. See Wolber et al., Spin-lattice relaxation of laser-polarized xenon in human blood, 96 Proc. Natl. Acad. Sci. USA, pp. 3664-3669 (March 1999). (The more oxygenated arterial blood provides increased polarization life over the relatively de-oxygenated venous blood). Therefore, for about a 5 second transit time (the time estimate for the uptaken hyperpolarized ^129Xe to travel to the brain from the pulmonary vessels), the ^129Xe polarization is reduced to about 37% of its original value. In addition, the relaxation time of the polarized ^129Xe in the lung itself is typically about 20-25 seconds due to the presence of paramagnetic oxygen. Accordingly, ^129Xe taken up in the latter portion of the breath-hold cycle can decay to have only about 50% of the starting polarization (the polarization level at the initial portion of the breath hold cycle). Thus, generally stated, the average polarization of ^129Xe entering the pulmonary blood can be estimated to be at about 75% of the starting inhaled polarization value. Taking these effects into account, the delivery to the brain of the inhaled ^129Xe can be estimated as about 1.4 cubic centimeters of the inhaled one-liter dose of ^129Xe polarized to the same level as the inhaled gas (0.75×0.37×5 cc's). […] Nonetheless, at least one researcher has made coarse images of ^129Xe in rat brains, but this inhalation administration delivery required large quantities of ^129Xe to be inhaled over a relatively long period of time. […] Unfortunately, the extended inhalation time period and/or associated large quantity dosage of the gas may not be desirable for certain clinical applications."}, "[8]": {"assay": "NMR spectra after polarized 129Xe gas injection into the vein of a rabbit", "assay_type": "in vivo", "text": "The signal strength at 8 seconds (FIG. 10P) being about 0.65 that of the original signal (FIG. 10A).\nThe rabbit survived the experiment. […] The signal strength at 8 seconds (FIG. 10P) being about 0.65 that of the original signal (FIG. 10A). The rabbit was placed in a whole body imager so that the exact location of the signal within the rabbit's body is not disclosed in the spectra. It is noted that a large quantity of the injected gas remained in the gas phase upon injection, most likely due to the size of the lumen used, about 0.5 mm."}, "[9]": {"conditions": "inhalation, breath-hold; cited from earlier work"}, "[10]": {"conditions": "cited from earlier work", "remark": "listed apart in the source"}}, "note": "Where two headings read alike, the source gives them in different places."}
{"smiles": "[Xe]", "note": "[Xe, xenon]", "values": [{"measurement": "Solubility ratio of xenon gas to nitrogen gas in blood", "setting": "[1]; 0.167/[…], air approximated as nitrogen", "result": "~11"}, {"measurement": "Solubility relative to air", "setting": "[1]; in blood, compared with air", "result": "about 10 times"}, {"measurement": "Time for a 30 μm radius bubble to dissipate", "setting": "[2]; 30 μm radius bubble", "result": "about 20 seconds"}, {"measurement": "Bubble dissipation rate (dr/dt)", "setting": "[2]; estimated from solubility ratio to air in blood", "result": "−1.5", "unit": "μm/s"}, {"measurement": "Diffusion coefficient in H2O", "setting": "[3]", "result": "about 1.9×10^−5 cm^2/s"}]}
{"smiles": "[3He]", "note": "[^3He, reference compound]", "values": [{"measurement": "ψ (relaxivity of GE180 glass for the gas)", "setting": "[4]", "result": "8.1e-06", "unit": "cm/s"}, {"measurement": "D (diffusion coefficient of the gas)", "setting": "[5]", "result": 2.05, "unit": "cm^2/s"}]}
{"smiles": "[129Xe]", "note": "[^129Xe]", "values": [{"measurement": "Quantity by the time it reaches the brain", "setting": "[6]; from 40 cc taken up of 1-liter inhalation dose, brain receives about 13% of blood flow", "result": "about 5 cubic centimeters"}, {"measurement": "Quantity delivered to remote target (brain) as fraction of inhaled 129Xe", "setting": "[6]; inhalation", "result": "about 0.14%"}, {"measurement": "Total quantity taken up", "setting": "[6]; inhaled about 1 liter, about 15 second breath-hold", "result": "about 40 cubic centimeters"}, {"measurement": "Delivery to the brain, as 129Xe polarized to the same level as the inhaled gas", "setting": "[6]; inhaled one-liter dose (0.75×0.37×5 cc's)", "result": "about 1.4 cubic centimeters"}, {"measurement": "Estimated uptake", "setting": "[6]; inhaled quantity about 1 liter", "result": "about 3 cubic centimeters per second"}, {"measurement": "Polarization remaining relative to original value after transit to the brain", "setting": "[7]; about 5 second transit time from pulmonary vessels to brain", "result": "about 37%"}, {"measurement": "Average polarization of 129Xe entering the pulmonary blood, of starting inhaled polarization", "setting": "[7]; inhalation, breath-hold", "result": "about 75%"}, {"measurement": "Polarization of 129Xe taken up in the latter portion of the breath-hold cycle, of starting polarization", "setting": "[7]; latter portion of breath-hold", "result": "about 50%"}, {"measurement": "Bubble dissipation rate relative to air in blood", "setting": "[2]; in blood, faster than air", "result": "about 11 times"}, {"measurement": "ψ (relaxivity of GE180 glass for the gas)", "setting": "[4]", "result": 0.00017, "unit": "cm/s"}, {"measurement": "Relaxivity of high purity aluminum for 129Xe", "setting": "[4]; high purity aluminum surface", "result": "about 0.00225 cm/min"}, {"measurement": "Survival of the animal", "setting": "[8]; about 3 cc gas injected into vein of rabbit", "result": "survived"}, {"measurement": "Phase of the injected gas in the bloodstream during acquisition", "setting": "[8]; about 3 cc into vein of rabbit, about 8 seconds", "result": "remained substantially in the gas phase"}, {"measurement": "T1 of the gas in the blood", "setting": "[8]; gas phase in the bloodstream, rabbit", "result": "at least 20 seconds"}, {"measurement": "Rate of uptake of inhaled gas by pulmonary vessels and blood", "setting": "[9]", "result": "approximately 0.3 % per second"}, {"measurement": "Relaxation time T1 in arterial blood", "setting": "[10]; arterial blood, about 1.5 Tesla", "result": 6.4, "unit": "s"}, {"measurement": "Relaxation time in the lung", "setting": "[10]; in the lung, presence of paramagnetic oxygen", "result": "20 to 25", "unit": "s"}, {"measurement": "Relaxation time T1 in venous blood", "setting": "[10]; venous blood, about 1.5 Tesla", "result": 4.0, "unit": "s"}, {"measurement": "D (diffusion coefficient of the gas)", "setting": "[5]", "result": 0.065, "unit": "cm^2/s"}]}
{"smiles": "C", "note": "[methane]", "values": [{"measurement": "Diffusion coefficient in H2O", "setting": "[3]; exponent shared with the following value", "result": "2 ×10^−5 cm^2/s"}]}
{"smiles": "O", "note": "[water]", "values": [{"measurement": "Diffusion coefficient in H2O", "setting": "[3]", "result": "2.3×10^−5 cm^2/s"}]}
